Test [1] has as its system rat myocardial ischemia models induced by coronary artery ligation. Nature of the test: Myocardial infarction area of rats after coronary artery ligation (N-BT staining). In kind it is in vivo, Sprague-Dawley male rats. The note with it: 5 hours after coronary artery ligation, x ± SD. From the text: Sprague-Dawley male rats of clean grade weighting 200-220 g were supplied by the animal experimental center of the Second Military Medical University (license number: SCXK (Shanghai)-2007-0003). • 2.1.2 Experimental groups
Experimental rats were randomly divided into four groups: sham group: n=8, model group: n=9, MLIF low-dose group: n=11, MLIF high-dose group: n=12. The dose of medicine could be administrated according to rat body weight. MLIF low-dose group and MLIF high-dose group were administrated by tail intravenous injection prepared with normal saline as solvent at the dose of 0.15 mg/kg and 0.5 mg/kg, respectively. • 2.1.3 Coronary artery ligation and measurement of myocardial infarction area of rats
The Sprague-Dawley male rats were abdomen anesthetized with 25% urethane (0.4 ml/100 g) and fixated at supine position. The chest was cut open among the fifth rib at left, and then the fourth and fifth ribs were cut off along the left side of sterna at 2 mm. The pericardium was snipped off with heart exposed, and a 0/3 suture line was passed through the left anterior descending coronary artery. The rats were administrated by tail intravenous injection slowly. After 10 minutes, the left anterior descending coronary artery was ligated rapidly and the heart was returned to its chest, removing the air within the thorax by hand, closing the thorax and tightening the purse-string suture rapidly. The entire process of opening and closing chest was performed within 30 seconds. The coronary arteries of rats of sham group were not ligated since the myocardial ischemia would be caused by coronary artery ligation.
The rats were administrated by tail intravenous injection with the dose of 0.15 mg/kg (MLIF low-dose group) and 0.5 mg/kg (MLIF high-dose group) at 15 minutes after coronary artery ligation with the same volume of normal saline administrated in sham group and model group. Each group of animals was executed at 5 hours after coronary artery ligation. The heart was taken out and the heart ventricle muscle was transversely chipped into 5 slices, the cut position of which was parallel to coronary sulcus under the coronary artery ligation line. The five slices of the heart ventricle muscle were stained with Nitroblue tetrazolium (N-BT) for 15 minutes with shaking. The normal heart ventricle muscle was dyed into dark blue while that of the area of myocardial infarction was unstained with normally light yellow. The area of myocardial infarction was isolated by a dissecting microscope and the whole heart weight, the left ventricle weight and the area of myocardial infarction weight were weighed, respectively, the percent (%) of area of myocardial infarction weight to whole heart weight were quantified as an measure on myocardial infarction area ranges. • 2.1.4 Data and statistics analysis
(§1) All experimental data are given as x±SD. Differences between the groups were calculated by analysis of variance (SPSS 10.0).

Test [2] has as its system acute myocardial ischemia rats (coronary artery ligation). Nature of the test: Serum creatine kinase (CK) and lactic dehydrogenase (LDH) of acute myocardial ischemia rats. The test is classed as in vivo, Sprague-Dawley male rats. To be noted: blood at 5 hours after coronary artery ligation, x ± SD; for LDH activity in blood serum: P < 0.01 vs model group; for CK activity in blood serum: P < 0.05 vs model group.
Excerpt: Sprague-Dawley male rats of clean grade weighting 200-220 g were supplied by the animal experimental center of the Second Military Medical University (license number: SCXK (Shanghai)-2007-0003). • 2.2.2 Experimental groups
Experimental rats were randomly divided into four groups: sham group: n=7, model group: n=8, MLIF low-dose group: n=8, MLIF high-dose group: n=9. The dose of medicine could be administrated according to rat body weight. MLIF low-dose group and MLIF high-dose group were administrated by tail intravenous injection prepared with normal saline as solvent at the dose of 0.15 mg/kg and 0.5 mg/kg, respectively. • 2.2.3 Coronary artery ligation and determination of CK and LDH in blood serum
Coronary artery ligations of rats were carried out as described previously. 3m1 blood sample of each animal was taken from femoral artery at 5 hours after coronary artery ligation and the blood serum was collected according to the method of convengtional centrifugalization. The creatine kinase (CK) and lactic dehydrogenase (LDH) activities in blood serum were measured by semi-automatic biochemical analyzer. • 2.2.4 Data and statistics analysis
as §1

Where [3] appears, read: MLIF high-dose group 0.5 mg/kg tail i.v.
Setting [4] is: MLIF high-dose group 0.5 mg/kg tail i.v., P < 0.01 vs model group.
[5] abbreviates: MLIF low-dose group 0.15 mg/kg tail i.v.
Where [6] appears, read: MLIF low-dose group 0.15 mg/kg tail i.v., P < 0.05 vs model group.

Several values for one entry are separate records, joined by “and”; a condition that tells them apart may be missing. Equal values may be shown once.

Turning to Met-Gln-Cys-Asn-Ser (MQCNS) [MLIF], the results for the “area of myocardial infarction weight” value in test [1] (setting [3]) and in test [1] (setting [5]) were 158 ± 22.4^ΔΔ mg and 187 ± 22.8^ΔΔ mg, respectively. The “area of myocardial infarction/ left ventricle” value was 30±3.7% and 30 ± 3.7^ΔΔ, ** % in test [1] (setting [4]); 33±3.2% and 33 ± 3.2^ΔΔ, * % in test [1] (setting [6]). Moreover, the “area of myocardial infarction/ whole heart” value in test [1] (setting [4]) is 20±2.7% and 20 ± 2.7^ΔΔ, ** %; in test [1] (setting [6]), 22±1.9% and 22 ± 1.9^ΔΔ, * %. Besides, the “LDH activity in blood serum” value in test [2] (setting [3]) is 3642±817 IU/L and 3642 ± 817^ΔΔ, ** IU/L; in test [2] (setting [5]), 3156±864.1 IU/L and 3156 ± 864.1^ΔΔ, ** IU/L. Moreover, the “CK activity in blood serum” value in test [2] (setting [3]) was 5244±1787.8 IU/L and 5244 ± 1787.8^ΔΔ, * IU/L; in test [2] (setting [5]), 5258±2114.3 IU/L and 5258 ± 2114.3^ΔΔ, * IU/L.

Values taken from patent US20130102535A1, “Method for Preventing Myocardial Ischemia” (Shanghai Bajiayi Pharmaceutical Science and Technology Co. …, priority 2009, published 2013).
